Test results published in PMC7129916 (Clinical Microbiology and Infection, 2015).
Values after ≈ are worked out from the molar mass of the structure shown. Like-named read-outs stand apart in the source and are kept apart here. One block for each compound: values may come before it.

Key:
MSSA [1] = tested on: MSSA
M. catarrhalis [2] = assay: microbe, parasite or virus in culture; assay type: cell-based
S. pneumoniae [3] = assay: microbe, parasite or virus in culture; assay type: cell-based; conditions: Streptococcus pneumoniae
K. pneumoniae = assay: microbe, parasite or virus in culture; assay type: cell-based; conditions: Klebsiella pneumoniae
H. influenzae [4] = assay: microbe, parasite or virus in culture; assay type: cell-based; conditions: Haemophilus influenzae
S. aureus MRSA = assay: microbe, parasite or virus in culture; assay type: cell-based; conditions: Staphylococcus aureus
MRSA = assay: microbe, parasite or virus in culture; conditions: Staphylococcus aureus
Porphyromonas gingivalis = assay: microbe, parasite or virus in culture; assay type: cell-based, P. gingivalis; conditions: read-out: MIC of mutants
MSSA [5] = assay: microbe, parasite or virus in culture; conditions: Staphylococcus aureus
S. pneumoniae [6] = tested on: S. pneumoniae
S. pneumoniae (Sp) = assay: microbe, parasite or virus in culture; assay type: cell-based; conditions: Streptococcus pneumoniae
[7] = 90% CI 86 to 97%
[8] = tested on: intracellular P. gingivalis in KB cells; assay type: cell-based
S. aureus MSSA = assay: microbe, parasite or virus in culture; assay type: cell-based; conditions: Staphylococcus aureus
[9] = in vivo
M. catarrhalis [10] = assay: microbe, parasite or virus in culture; assay type: cell-based; conditions: Moraxella catarrhalis
H. influenzae [11] = assay: microbe, parasite or virus in culture; assay type: cell-based; conditions: Haemophilus influenzae; remark: listed apart in the source
[12] = parameters: species or system human; conditions: in vivo
S. aureus (SA) [13] = assay: microbe, parasite or virus in culture; conditions: Staphylococcus aureus
S. pneumoniae (SPN) [14] = assay: microbe, parasite or virus in culture; conditions: Streptococcus pneumoniae
[15] = tested on: all resistant organism subsets; assay type: cell-based
Klebsiella spp. ESBL = assay: microbe, parasite or virus in culture; assay type: cell-based
E. coli (EC) = assay: microbe, parasite or virus in culture; conditions: Escherichia coli
Enterobacter spp. (ENT) [16] = tested on: Enterobacter spp. (ENT)
[17] = tested on: Viridans group streptococci (VGS); assay: organism not typed; assay type: cell-based
S. aureus (SA) [18] = assay: microbe, parasite or virus in culture; assay type: cell-based; conditions: Staphylococcus aureus
[19] = tested on: S. aureus and/or streptococci; conditions: 30 of 35 pts
Enterobacteriaceae (ENT) = assay: organism not typed; assay type: cell-based
H. influenzae (Hi) [20] = tested on: H. influenzae (Hi)
P. aeruginosa (PSA) = assay: microbe, parasite or virus in culture; conditions: Pseudomonas aeruginosa
[21] = tested on: Coag neg staphylococci (CoNS); assay: organism not typed; assay type: cell-based
M. catarrhalis (MCAT) = assay: microbe, parasite or virus in culture; conditions: Moraxella catarrhalis
Serratia spp. (SER) = assay: microbe, parasite or virus in culture
Enterobacter spp. (ENT) [22] = assay: microbe, parasite or virus in culture
[23] = tested on: S. aureus and/or streptococcal baseline pathogens; assay: microbe, parasite or virus in culture; conditions: Staphylococcus aureus, read-out: MIC values
S pneumoniae (SPN) = assay: microbe, parasite or virus in culture; assay type: cell-based
Acinetobacter spp. (AC) = assay: microbe, parasite or virus in culture
S. pneumoniae (SPN) [24] = tested on: S. pneumoniae (SPN)
H. influenzae (Hi) [25] = assay: microbe, parasite or virus in culture; conditions: Haemophilus influenzae
Klebsiella spp. (KSP) = assay: microbe, parasite or virus in culture
E. coli ESBL = assay: microbe, parasite or virus in culture; assay type: cell-based
Enterococcus spp. (ESP) = assay: microbe, parasite or virus in culture; assay type: cell-based
beta-streptococci (BST) = assay: organism not typed
Streptococcus pneumoniae = assay: microbe, parasite or virus in culture; assay type: cell-based, S. pneumoniae

Compound: COc1c(N2C[C@@H]3CCCN[C@@H]3C2)c(F)cc2c(=O)c(C(=O)O)cn(C3CC3)c12 [moxifloxacin]
more active than ciprofloxacin (MSSA [1]): 4 fold
susceptible (%) (M. catarrhalis [2]): 100%
MIC90 (M. catarrhalis [2]; Moraxella catarrhalis): 0.125 µg/mL (≈ 0.311 µM)
MIC90 (S. pneumoniae [3]): 0.19 µg/mL (≈ 0.473 µM)
MIC90 (K. pneumoniae): 0.75 µg/mL (≈ 1.87 µM)
MIC90 (H. influenzae [4]): 0.125 µg/mL (≈ 0.311 µM)
MIC90 (S. aureus MRSA): 8 µg/mL (≈ 19.9 µM)
MIC90 (MRSA): ≥ 16 µg/mL
MIC (Porphyromonas gingivalis): > 32 µg/mL
MIC50 (MSSA [5]): 0.25 µg/mL (≈ 0.623 µM)
%I (S. pneumoniae [6]; 2002 (n = 103)): 3%
%R (S. pneumoniae [6]; 2002 (n = 103)): 1%
%S (S. pneumoniae [6]; 2002 (n = 103)): 96%
%I (S. pneumoniae [6]; 2003 (n = 137)): 0%
%R (S. pneumoniae [6]; 2003 (n = 137)): 1.5%
%S (S. pneumoniae [6]; 2003 (n = 137)): 98.5%
%I (S. pneumoniae [6]; 2004 (n = 110)): 0%
%R (S. pneumoniae [6]; 2004 (n = 110)): 0%
%S (S. pneumoniae [6]; 2004 (n = 110)): 100%
MIC90 (S. pneumoniae (Sp)): 0.25 µg/mL (≈ 0.623 µM)
AUC point estimate B/A [7]: 91%
AUC point estimate C/A [7]: 91%
concentration killing all intracellular P. gingivalis [8]: 100 fold MIC
MIC90 (S. aureus MSSA): 1 µg/mL (≈ 2.49 µM)

Compound: COc1c(N2CCNC(C)C2)c(F)cc2c(=O)c(C(=O)O)cn(C3CC3)c12 (centres unmarked) [GFX, gatifloxacin]
MIC50 (M. catarrhalis [10]): ≤ 0.03 µg/mL
MIC50 (H. influenzae [11]): ≤ 0.03 µg/mL

Compound: C[C@@H](O)[C@H]1C(=O)N2C(C(=O)O)=C(S[C@@H]3CN[C@H](C(=O)Nc4cccc(C(=O)O)c4)C3)[C@H](C)[C@H]12 [ETP]
Adjusted LOS [12]: 11.9

Compound: CN(C)c1cc(NC(=O)CNC(C)(C)C)c(O)c2c1C[C@H]1C[C@H]3[C@H](N(C)C)C(O)=C(C(N)=O)C(=O)[C@@]3(O)C(O)=C1C2=O [tigecycline]
MIC50 (S. aureus (SA) [13]): 0.25 µg/mL (≈ 0.427 µM)
MIC90 (S. aureus (SA) [13]): 0.5 µg/mL (≈ 0.854 µM)
MIC50 (S. pneumoniae (SPN) [14]): ≤ 0.12 µg/mL
MIC90 (S. pneumoniae (SPN) [14]): ≤ 0.12 µg/mL
Total % Inhibited at ≤ 2 mg/L [15]: 97%
Total % Inhibited at ≤ 4 mg/L [15]: >99%
% inhibited at ≤ 4 mg/L (Klebsiella spp. ESBL; (317)): 100%
MIC50 (Klebsiella spp. ESBL; Klebsiella): 0.5 µg/mL (≈ 0.854 µM)
MIC90 (Klebsiella spp. ESBL; Klebsiella): 2 µg/mL (≈ 3.41 µM)
MIC50 (E. coli (EC)): 0.25 µg/mL (≈ 0.427 µM)
MIC90 (E. coli (EC)): 0.5 µg/mL (≈ 0.854 µM)
MIC (E. coli (EC); read-out: MICs): ≤ 2 µg/mL
% ≤2 mg/L (Enterobacter spp. (ENT) [16]): 98%
% ≤4 mg/L (Enterobacter spp. (ENT) [16]): 100%
MIC50 [17]: ≤ 0.12 µg/mL
MIC90 [17]: 0.12 µg/mL (≈ 0.205 µM)
MIC50 (S. aureus (SA) [18]): 0.25 µg/mL (≈ 0.427 µM)
MIC90 (S. aureus (SA) [18]): 0.5 µg/mL (≈ 0.854 µM)
clinical cure [19]: 85.7%
% inhibited at ≤ 4 mg/L (Enterobacteriaceae (ENT)): 98%
MIC50 (Enterobacteriaceae (ENT)): 0.5 µg/mL (≈ 0.854 µM)
MIC 50% (Enterobacteriaceae (ENT)): 0.25 mg/L (≈ 0.427 µM)
MIC90 (Enterobacteriaceae (ENT)): 4 µg/mL (≈ 6.83 µM)
MIC 90% (Enterobacteriaceae (ENT)): 2 mg/L (≈ 3.41 µM)
MIC90 (H. influenzae (Hi) [20]; NP): 1 mg/L (≈ 1.71 µM)
MIC50 (H. influenzae (Hi) [20]; NP (16)): 0.5 mg/L (≈ 0.854 µM)
MIC90 (P. aeruginosa (PSA)): 16 µg/mL (≈ 27.3 µM)
MIC50 [21]: ≤ 0.12 µg/mL
MIC90 [21]: 0.5 µg/mL (≈ 0.854 µM)
MIC90 (M. catarrhalis (MCAT)): 0.25 µg/mL (≈ 0.427 µM)
MIC50 (M. catarrhalis (MCAT); CARTI (600)): ≤ 0.12 µg/mL
MIC50 (M. catarrhalis (MCAT); NP (7)): 0.25 µg/mL (≈ 0.427 µM)
MIC50 (Serratia spp. (SER)): 1 µg/mL (≈ 1.71 µM)
MIC90 (Serratia spp. (SER)): 4 µg/mL (≈ 6.83 µM)
MIC50 (Enterobacter spp. (ENT) [22]): 0.5 µg/mL (≈ 0.854 µM)
MIC90 (Enterobacter spp. (ENT) [22]): 2 µg/mL (≈ 3.41 µM)
MIC [23]: 0.06 to 0.5 µg/mL (≈ 0.102 to 0.854 µM)
% inhibited at ≤ 2 mg/L (S pneumoniae (SPN); CIP-R (171)): 100%
MIC 50% (S pneumoniae (SPN); CIP-R (171)): ≤ 0.12 mg/L
MIC50 (S pneumoniae (SPN); Streptococcus pneumoniae): ≤ 0.12 µg/mL
MIC90 (S pneumoniae (SPN); Streptococcus pneumoniae, CIP-R (171)): ≤ 0.12 µg/mL
MIC90 (S pneumoniae (SPN); Streptococcus pneumoniae, TET R (733)): ≤ 0.12 µg/mL
MIC90 (S pneumoniae (SPN); Streptococcus pneumoniae, […]): 0.12 µg/mL (≈ 0.205 µM)
% inhibited at ≤ 2 mg/L (S pneumoniae (SPN); TET R (733)): >99%
% inhibited at ≤ 4 mg/L (S pneumoniae (SPN); TET R (733)): >99%
MIC 50% (S pneumoniae (SPN); TET R (733)): ≤ 0.12 mg/L
% inhibited at ≤ 2 mg/L (S pneumoniae (SPN); […]): 100%
MIC50 (Acinetobacter spp. (AC)): 1 µg/mL (≈ 1.71 µM)
MIC90 (Acinetobacter spp. (AC)): 4 µg/mL (≈ 6.83 µM)
MIC90 (S. pneumoniae (SPN) [24]; NP): ≤0.12/≤0.12 mg/L
MIC50 (S. pneumoniae (SPN) [24]; NP (117)): ≤0.12/≤0.12 mg/L
MIC50 (H. influenzae (Hi) [25]): 0.5 µg/mL (≈ 0.854 µM)
MIC90 (H. influenzae (Hi) [25]): 1 µg/mL (≈ 1.71 µM)
MIC50 (Klebsiella spp. (KSP)): 0.5 µg/mL (≈ 0.854 µM)
MIC90 (Klebsiella spp. (KSP)): 1 µg/mL (≈ 1.71 µM)
MIC (Klebsiella spp. (KSP); read-out: MICs): ≤ 2 µg/mL
% inhibited at ≤ 2 mg/L (E. coli ESBL; (279)): >99%
% inhibited at ≤ 4 mg/L (E. coli ESBL; (279)): 100%
MIC50 (E. coli ESBL; Escherichia coli): 0.25 µg/mL (≈ 0.427 µM)
MIC90 (E. coli ESBL; Escherichia coli): 0.5 µg/mL (≈ 0.854 µM)
MIC50 (Enterococcus spp. (ESP); Enterococcus): ≤ 0.12 µg/mL
MIC90 (Enterococcus spp. (ESP); Enterococcus): 0.25 µg/mL (≈ 0.427 µM)
MIC 50% (Enterococcus spp. (ESP); Van B (95)): ≤ 0.12 mg/L
MIC 90% (Enterococcus spp. (ESP); Van B (95)): 0.25 mg/L (≈ 0.427 µM)
MIC50 (beta-streptococci (BST)): ≤ 0.12 µg/mL
MIC90 (beta-streptococci (BST)): ≤ 0.12 µg/mL

More lines, now with the values ahead:

concomitant drug bioavailability (AUC %) with POS vs alone [9]: 458%
Compound: C=CC[C@@H]1/C=C(\C)C[C@H](C)C[C@H](OC)[C@H]2O[C@@](O)(C(=O)C(=O)N3CCCC[C@H]3C(=O)O[C@H](/C(C)=C/[C@@H]3CC[C@@H](O)[C@H](OC)C3)[C@H](C)[C@@H](O)CC1=O)[C@H](C)C[C@@H]2OC [Tacrolimus, tacrolimus]

MIC (Streptococcus pneumoniae): 4 µg/mL (≈ 4.93 µM)
Compound: CC[C@H]1OC(=O)[C@H](C)C(=O)[C@H](C)[C@@H](O[C@@H]2O[C@H](C)C[C@H](N(C)C)[C@H]2O)[C@](C)(OC)C[C@@H](C)C(=O)[C@H](C)[C@H]2N(CCCCn3cnc(-c4cccnc4)c3)C(=O)O[C@]12C [telithromycin]
